Values after ≈ are worked out from the molar mass of the structure shown.
Legend:
ER [1] = experiment: ER expression in paired tumor biopsies (FIH Part A); format: in vivo, human; settings: 14 paired biopsies, doses up to 500 mg QD, WT or mutant ER
T47D cells = experiment: Live-cell imaging proliferation, T47D; format: cell-based; settings: Homo sapiens, 144 h, up to 6 days
Source text: Full growth of the cells over this time period is shown by extent of cell confluence with dimethyl sulfoxide (DMSO).

[2] = MCF7/estradiol xenograft tumor growth inhibition; format: in vivo, mouse; settings: in vivo, oral; mouse, 30 mg/kg; read-out: mean AUC0-24
Protocol: (§1) The 30 mg/kg dose was associated with a mean AUC0-24 of 5,717 ng·h/mL. The tumor ER levels were reduced by ≥94% at all doses compared to mice administered vehicle only (FIG. 3B).
(§2) The 30 mg/kg dose was associated with a mean AUC0-24 of 5,717 ng·h/mL.

MCF7/estradiol xenograft = MCF7/estradiol xenograft tumor growth inhibition; format: in vivo, mouse
Protocol: as §1, §2

ER [3] = biological target: T1, ER (Rattus norvegicus, UniProt P06211); experiment: Uterine wet weight in juvenile rats (ER agonist activity); format: in vivo
T1 construct: uterine wet weight in juvenile rats; from tissue; host or cells: uterus of juvenile rats, in vivo

opioid kappa receptor = opioid kappa receptor (Homo sapiens, UniProt P41145); experiment: Secondary pharmacodynamics binding, opioid kappa receptor; settings: in vitro
Chain of opioid kappa receptor (P41145 whole entry): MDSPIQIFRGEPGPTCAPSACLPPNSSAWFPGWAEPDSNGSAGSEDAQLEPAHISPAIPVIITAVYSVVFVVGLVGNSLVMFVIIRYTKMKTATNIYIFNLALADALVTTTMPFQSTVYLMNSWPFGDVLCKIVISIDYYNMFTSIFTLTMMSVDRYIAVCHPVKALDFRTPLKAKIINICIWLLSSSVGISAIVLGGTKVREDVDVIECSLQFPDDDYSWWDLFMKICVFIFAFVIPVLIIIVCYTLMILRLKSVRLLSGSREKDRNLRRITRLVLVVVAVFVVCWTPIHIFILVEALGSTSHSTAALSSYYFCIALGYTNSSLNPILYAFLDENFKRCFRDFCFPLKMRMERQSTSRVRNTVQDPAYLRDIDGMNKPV

CK1α = CK1α (Homo sapiens, UniProt P48729); experiment: Cereblon neomorphic substrate degradation, CK1α; format: cell-based; settings: in vitro
Chain of CK1α (Q96SW2 whole entry partner): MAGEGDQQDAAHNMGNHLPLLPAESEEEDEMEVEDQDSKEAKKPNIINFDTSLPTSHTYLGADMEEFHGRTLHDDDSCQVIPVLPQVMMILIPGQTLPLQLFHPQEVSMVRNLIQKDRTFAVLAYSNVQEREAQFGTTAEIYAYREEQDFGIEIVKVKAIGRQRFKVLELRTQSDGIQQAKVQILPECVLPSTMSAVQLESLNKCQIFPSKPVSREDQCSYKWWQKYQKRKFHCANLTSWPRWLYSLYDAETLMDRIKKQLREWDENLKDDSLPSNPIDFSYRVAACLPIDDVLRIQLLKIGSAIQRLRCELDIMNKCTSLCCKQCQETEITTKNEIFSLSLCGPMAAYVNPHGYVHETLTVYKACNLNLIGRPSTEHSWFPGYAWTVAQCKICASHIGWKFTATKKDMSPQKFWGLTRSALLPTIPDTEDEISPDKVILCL
Chain of CK1α (Q16531 whole entry partner): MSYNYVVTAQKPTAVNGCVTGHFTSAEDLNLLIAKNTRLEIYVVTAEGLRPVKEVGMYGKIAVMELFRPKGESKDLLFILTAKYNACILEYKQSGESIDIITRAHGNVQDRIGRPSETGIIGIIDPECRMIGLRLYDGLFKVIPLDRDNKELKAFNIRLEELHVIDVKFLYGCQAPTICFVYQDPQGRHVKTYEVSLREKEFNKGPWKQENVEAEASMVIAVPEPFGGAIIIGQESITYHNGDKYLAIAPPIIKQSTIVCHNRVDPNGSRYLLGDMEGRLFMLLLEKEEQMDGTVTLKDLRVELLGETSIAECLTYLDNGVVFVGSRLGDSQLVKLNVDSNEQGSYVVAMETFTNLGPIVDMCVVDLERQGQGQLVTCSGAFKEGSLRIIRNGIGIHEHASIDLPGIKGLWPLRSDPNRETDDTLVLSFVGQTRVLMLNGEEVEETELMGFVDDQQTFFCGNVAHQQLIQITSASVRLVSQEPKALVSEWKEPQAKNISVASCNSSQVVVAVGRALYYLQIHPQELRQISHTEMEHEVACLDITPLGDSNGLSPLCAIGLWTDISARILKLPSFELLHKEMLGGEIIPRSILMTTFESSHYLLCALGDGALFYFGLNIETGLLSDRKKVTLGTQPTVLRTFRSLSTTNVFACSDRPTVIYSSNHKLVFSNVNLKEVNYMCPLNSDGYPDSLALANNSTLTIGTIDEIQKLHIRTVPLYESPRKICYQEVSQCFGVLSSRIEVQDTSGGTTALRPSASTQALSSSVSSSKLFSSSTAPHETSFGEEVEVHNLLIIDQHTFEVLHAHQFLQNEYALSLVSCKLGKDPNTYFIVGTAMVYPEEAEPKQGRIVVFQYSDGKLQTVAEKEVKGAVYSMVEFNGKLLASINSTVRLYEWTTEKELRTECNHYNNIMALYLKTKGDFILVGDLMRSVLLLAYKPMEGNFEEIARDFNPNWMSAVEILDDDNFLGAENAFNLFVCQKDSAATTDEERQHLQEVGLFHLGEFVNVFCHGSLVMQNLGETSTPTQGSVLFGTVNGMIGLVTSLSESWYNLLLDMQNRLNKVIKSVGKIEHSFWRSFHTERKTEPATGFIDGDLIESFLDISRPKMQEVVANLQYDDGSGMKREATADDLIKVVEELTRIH
Chain of CK1α (P48729 whole entry): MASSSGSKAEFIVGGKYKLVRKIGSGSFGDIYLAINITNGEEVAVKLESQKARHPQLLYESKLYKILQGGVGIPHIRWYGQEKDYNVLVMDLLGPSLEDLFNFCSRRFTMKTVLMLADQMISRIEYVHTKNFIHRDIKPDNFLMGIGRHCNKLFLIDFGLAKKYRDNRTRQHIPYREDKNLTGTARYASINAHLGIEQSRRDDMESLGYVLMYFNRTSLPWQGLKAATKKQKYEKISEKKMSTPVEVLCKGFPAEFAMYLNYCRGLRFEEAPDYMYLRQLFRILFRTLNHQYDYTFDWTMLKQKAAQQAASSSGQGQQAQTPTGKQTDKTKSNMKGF
Source text: (§3) These drugs bind to cereblon and promote the degradation of novel (neomorphic) substrates.

SALL4 = biological target: T2, SALL4 (Homo sapiens, UniProt Q9UJQ4); experiment: Cereblon neomorphic substrate degradation, SALL4; format: cell-based
T2 construct: host or cells: two unnamed cell lines
T2 sequence (Q96SW2 whole entry partner, species assumed): as the sequence (Q96SW2 whole entry partner) above
T2 sequence (Q16531 whole entry partner, species assumed): as the sequence (Q16531 whole entry partner) above
T2 sequence (Q9UJQ4 whole entry, species assumed): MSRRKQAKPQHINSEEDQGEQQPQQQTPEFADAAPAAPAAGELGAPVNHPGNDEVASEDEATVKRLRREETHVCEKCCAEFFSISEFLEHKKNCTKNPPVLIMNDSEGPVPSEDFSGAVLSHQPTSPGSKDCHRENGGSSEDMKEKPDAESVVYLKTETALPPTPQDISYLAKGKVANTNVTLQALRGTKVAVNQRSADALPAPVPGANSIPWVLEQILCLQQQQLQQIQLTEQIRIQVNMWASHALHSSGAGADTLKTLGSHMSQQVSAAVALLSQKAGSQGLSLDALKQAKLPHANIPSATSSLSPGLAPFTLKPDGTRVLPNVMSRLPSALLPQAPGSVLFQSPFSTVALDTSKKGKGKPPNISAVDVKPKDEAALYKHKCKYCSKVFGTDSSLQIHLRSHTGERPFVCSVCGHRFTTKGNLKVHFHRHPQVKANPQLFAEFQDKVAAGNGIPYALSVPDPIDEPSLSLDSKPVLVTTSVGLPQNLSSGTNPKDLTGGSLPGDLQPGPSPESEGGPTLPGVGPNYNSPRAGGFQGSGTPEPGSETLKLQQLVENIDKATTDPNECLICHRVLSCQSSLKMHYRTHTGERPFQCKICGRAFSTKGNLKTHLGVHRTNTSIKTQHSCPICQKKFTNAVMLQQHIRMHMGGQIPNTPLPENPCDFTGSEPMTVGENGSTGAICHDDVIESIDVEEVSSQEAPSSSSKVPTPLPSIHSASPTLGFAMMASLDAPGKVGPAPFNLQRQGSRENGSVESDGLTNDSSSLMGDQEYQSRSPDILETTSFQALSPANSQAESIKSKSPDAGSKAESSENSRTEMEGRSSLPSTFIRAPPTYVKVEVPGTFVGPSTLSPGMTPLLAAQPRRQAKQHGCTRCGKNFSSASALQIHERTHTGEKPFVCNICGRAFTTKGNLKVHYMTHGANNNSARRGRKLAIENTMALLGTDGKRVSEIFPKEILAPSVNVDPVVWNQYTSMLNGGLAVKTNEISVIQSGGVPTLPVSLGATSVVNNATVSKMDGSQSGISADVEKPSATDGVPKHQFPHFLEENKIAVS
Source text: as §3

hERG channel = hERG channel (Homo sapiens, UniProt Q12809); experiment: hERG channel inhibition; format: biochemical
Chain of hERG channel (Q12809 whole entry): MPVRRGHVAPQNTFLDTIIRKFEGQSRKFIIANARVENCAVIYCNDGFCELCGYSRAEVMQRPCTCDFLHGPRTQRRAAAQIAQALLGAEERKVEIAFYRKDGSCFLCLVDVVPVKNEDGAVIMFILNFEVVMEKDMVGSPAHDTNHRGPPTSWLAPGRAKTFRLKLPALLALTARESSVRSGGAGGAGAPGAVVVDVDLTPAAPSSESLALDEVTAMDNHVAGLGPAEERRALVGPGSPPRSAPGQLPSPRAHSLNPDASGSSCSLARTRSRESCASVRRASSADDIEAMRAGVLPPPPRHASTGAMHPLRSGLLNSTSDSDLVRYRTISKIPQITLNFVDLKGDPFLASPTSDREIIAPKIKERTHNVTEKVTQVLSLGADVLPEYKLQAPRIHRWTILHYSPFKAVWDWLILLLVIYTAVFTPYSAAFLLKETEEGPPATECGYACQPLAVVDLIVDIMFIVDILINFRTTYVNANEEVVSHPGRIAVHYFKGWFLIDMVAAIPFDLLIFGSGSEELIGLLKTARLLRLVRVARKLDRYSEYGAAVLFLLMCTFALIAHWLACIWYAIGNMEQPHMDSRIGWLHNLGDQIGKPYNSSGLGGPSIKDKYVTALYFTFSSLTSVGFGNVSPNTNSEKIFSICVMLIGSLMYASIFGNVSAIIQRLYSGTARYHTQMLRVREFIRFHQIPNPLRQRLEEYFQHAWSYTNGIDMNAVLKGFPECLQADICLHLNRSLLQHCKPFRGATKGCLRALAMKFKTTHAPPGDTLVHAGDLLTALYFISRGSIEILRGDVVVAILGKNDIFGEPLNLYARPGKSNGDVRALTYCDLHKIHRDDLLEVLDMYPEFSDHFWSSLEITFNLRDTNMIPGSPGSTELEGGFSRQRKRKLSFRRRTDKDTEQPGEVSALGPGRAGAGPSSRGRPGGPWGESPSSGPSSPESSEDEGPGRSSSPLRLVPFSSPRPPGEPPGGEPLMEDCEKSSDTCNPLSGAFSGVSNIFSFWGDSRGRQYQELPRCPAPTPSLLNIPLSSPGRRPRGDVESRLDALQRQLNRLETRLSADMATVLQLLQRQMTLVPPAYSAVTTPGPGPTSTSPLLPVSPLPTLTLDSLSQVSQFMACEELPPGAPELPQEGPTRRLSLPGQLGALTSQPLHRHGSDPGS
Protocol: The pivotal nonclinical safety studies were conducted in the US in accordance with GLP regulations per the US 21 CFR Part 58. These include the cardiovascular safety pharmacology study in dogs, the pivotal 28-day and 3-month repeat-dose toxicology studies in rats and dogs, and an in vitro phototoxicity assay. The bacterial reverse mutation assay, in vitro micronucleus assay, and 2 in vitro hERG studies were conducted in the UK in accordance with the UK Good Laboratory Practice Monitoring Authority, MHRA: Good Laboratory Practice Regulations 1999, Statutory Instrument 1999 No. 3106 as amended by the Good Laboratory Practice (Codification Amendments Etc.) Regulations, 2004, Statutory Instrument 2004, No. 994; and the OECD GLP and OECD Principles on Good Laboratory Practice ENV/MC/CHEM (98) 17 (Revised in 1997, Issued January 1998).accordance with the OECD Principles of Good Laboratory Practice and as accepted by Regulatory Authorities throughout the European Union, United States of America (FDA), Japan (MHLW), and other countries that are signatories to the OECD Mutual Acceptance of Data Agreement.

[4] = 3-month GLP oral toxicity study in rats; format: in vivo, rat; settings: for AUC(0-t) / Cmax: po, 300 mg/kg/day
Protocol: Male and female rats, 10/sex/group, were administered 0 (vehicle), 30, 100, or 300 mg/kg/day. Assessment of toxicity was based on mortality, clinical observations, BWs, food consumption, ophthalmic examinations, and clinical and anatomic pathology. Blood samples for TK were obtained from a satellite group of animals.

[5] = Solubility in phosphate buffer; format: physicochemical; settings: aqueous buffer; phosphate buffer at pH 7.4
[6] = Plasma protein binding, human; format: in vitro ADME; settings: read-out: free fraction
[7] = system: BALB/c 3T3 mouse fibroblasts; experiment: In vitro 3T3 phototoxicity; format: cell-based
[8] = in vivo
Source text: TEAE's from participants in both studies have been combined and are described below.

[9] = system: ER+/HER2− locally advanced/metastatic breast cancer; experiment: FIH Study Part B (VERITAC): clinical benefit rate, PFS; format: in vivo, human
[10] = Phase 2 study of Compound A or anastrozole in early ER+/HER2− breast cancer: adverse events
Source text: The study will also evaluate safety, tolerability, and clinical and pathological response after approximately 5.5 months of treatment.

[11] = TEAE, Treatment Related per title, Compound A 200 mg N = 23, Anastrozole 1 mg N = 13

Compound: O=C1CC[C@H](N2Cc3cc(N4CCN(CC5CCN(c6ccc([C@@H]7c8ccc(O)cc8CC[C@@H]7c7ccccc7)cc6)CC5)CC4)ccc3C2=O)C(=O)N1 [Compound A, (S)-3-(5-(4-((1-(4-((1R,2S)-6-hydroxy-2-phenyl-1,2,3,4-tetrahydronaphthalen-1-yl)phenyl)piperidin-4-yl)methyl)piperazin-1-yl)-1-oxoisoindolin-2-yl)piperidine-2,6-dione]
- ER degradation, median decrease (ER [1]): 67%
- GI50 (T47D cells): 1.7 nM
- AUC(0-t) [2]: 5720 ng·h/mL
- TGI (MCF7/estradiol xenograft; 3 mg/kg PO QD 28 days): 85%
- TGI (MCF7/estradiol xenograft; 10 mg/kg PO QD 28 days): 98%
- TGI (MCF7/estradiol xenograft; 30 mg/kg PO QD 28 days): 124%
- uterine wet weight (ER [3]): did not increase uterine wet weight
- binding (opioid kappa receptor): bound
- degradation of CK1α (CK1α): did not degrade
- degradation of SALL4 (SALL4; a different cell line): no SALL4 degradation
- degradation of SALL4 (SALL4; one cell line): some degradation activity
- IC50 (hERG channel): > 25100 nM
- unbound Cmax margin to hERG IC50 (hERG channel; recommended Phase 3 dose of 200 mg): approximately 170 ×
- sex differences in Cmax and AUC0-24 ([4]; both, rat, in vivo): less than 2 fold
- NOAEL ([4]; female rats, 3 months oral): a NOAEL was not determined
- AUC(0-t) ([4]; female, rat, in vivo): 75000 ng·h/mL
- Cmax ([4]; female, rat, in vivo): 3710 ng/mL
- AUC(0-t) ([4]; male, rat, in vivo): 88500 ng·h/mL
- Cmax ([4]; male, rat, in vivo): 4330 ng/mL
- NOAEL at 3 months ([4]; rat, in vivo, male rats, 3 months oral): 300 mg/kg/day
- solubility [5]: 1.5 µg/mL (≈ 2.07 µM)
- fraction unbound at 1 μM [6]: 0.124
- phototoxicity [7]: not phototoxic
- deaths [8]: No deaths were reported
- median progression-free survival ([9]; 200 mg QD, all evaluable, 95% CI 1.8-7.8): 3.5 months
- PFS ([9]; ITT (n=71)): 3.7 months
- participants on Compound A with a treatment-related AE ([10]; 200 mg, seven participants, 6 Jun 2023): 19.4%
- Anemia [10, 11]: 0 n (%)
- Arthralgia [10, 11]: 0 n (%)
- Asphyxia [10, 11]: 1 (4.3) n (%)
- Asthenia [10, 11]: 2 (8.7) n (%)
- Blood and lymphatic system disorders [10, 11]: 1 (4.3) n (%)
- Blood uric acid increased [10, 11]: 1 (4.3) n (%)
- Breast pain [10, 11]: 1 (4.3) n (%)
- Cardiac disorders [10, 11]: 1 (4.3) n (%)
- Constipation [10, 11]: 2 (8.7) n (%)
- Diarrhea [10, 11]: 1 (4.3) n (%)
- Dyspepsia [10, 11]: 0 n (%)
- Fatigue [10, 11]: 1 (4.3) n (%)
- Gastrointestinal disorders [10, 11]: 4 (17.4) n (%)
- General disorders and administration site conditions [10, 11]: 4 (17.4) n (%)
- Hematocrit decreased [10, 11]: 0 n (%)
- Heparin-induced thrombocytopenia [10, 11]: 1 (4.3) n (%)
- Hepatobiliary disorders [10, 11]: 3 (13.0) n (%)
- Hot flush [10, 11]: 3 (13.0) n (%)
- Hyperbilirubinemia [10, 11]: 2 (8.7) n (%)
- Hypercalcemia [10, 11]: 1 (4.3) n (%)
- Hyperglycemia [10, 11]: 2 (8.7) n (%)
- Hypernatremia [10, 11]: 1 (4.3) n (%)
- Hypertransaminasemia [10, 11]: 1 (4.3) n (%)
- Hypokalemia [10, 11]: 1 (4.3) n (%)
- Hyponatremia [10, 11]: 1 (4.3) n (%)
- Injury, poisoning and procedural complications [10, 11]: 1 (4.3) n (%)
- Insomnia [10, 11]: 1 (4.3) n (%)
- Investigations [10, 11]: 1 (4.3) n (%)
- Lymphopenia [10, 11]: 0 n (%)
- Metabolism and nutrition disorders [10, 11]: 2 (8.7) n (%)
- Musculoskeletal and connective tissue disorders [10, 11]: 0 n (%)
- Myalgia [10, 11]: 0 n (%)
- Nervous system disorders [10, 11]: 2 (8.7) n (%)
- Odynophagia [10, 11]: 1 (4.3) n (%)
- Procedural pain [10, 11]: 1 (4.3) n (%)
- Pruritus [10, 11]: 1 (4.3) n (%)
- Psychiatric disorders [10, 11]: 2 (8.7) n (%)
- Pyrexia [10, 11]: 1 (4.3) n (%)
- Reproductive system and breast disorders [10, 11]: 1 (4.3) n (%)
- Respiratory, thoracic and mediastinal disorders [10, 11]: 1 (4.3) n (%)
- Sinus bradycardia [10, 11]: 1 (4.3) n (%)
- Skin and subcutaneous tissue disorders [10, 11]: 1 (4.3) n (%)
- Somnolence [10, 11]: 2 (8.7) n (%)
- Stomatitis [10, 11]: 1 (4.3) n (%)
- Tension [10, 11]: 1 (4.3) n (%)
- Vascular disorders [10, 11]: 3 (13.0) n (%)
- With Any Adverse Event [10, 11]: 11 (47.8) n (%)
